The test system of one assay is L1210 cells. As to the kind of experiment: In vitro Growth Inhibitory Activity Determination (L1210, MTT). The settings on record: 3 days at 37° C., read-out: ID50 (L1210). It counts as cell-based. The procedure: L1210 cells were maintained in RPM-1640 a medium supplemented with 10% heat inactivated fetal bovine serum and […] mercaptomethanol/liter medium (RPMI-L). B16 cells were maintained in RPMI-1640 medium supplemented with 15% heat inactivated fetal bovine serum and antibiotics (RPMI-C).
Exponential growing L1210 cells (1×10^3 cells) or B16 cells (2-3×10^3 cells) in 0.1 mL medium were seeded on day 0 in a 96-well microtiter plate. On day 1, 0.1 mL aliquot of medium containing graded concentration of test analogs was added to the initial volume. After incubation at 37° C. in a humidified incubator for 3 days, the plates were centrifuged briefly and […] of the growth medium was removed. Cell cultures were incubated with […] of 3-(4,5-dimethylthiazol-2-yl)-2,5-diphenyltetrazolium bromide (MTT; 1 mg/ml in Dulbecco's phosphate buffer saline) for 4 hr. at 37° C. The resulting purple formazan precipitate was solubilized with […] of 0.04 N HCl in isopropyl alcohol. Absorbance was read in a Titertek Multiskan MCC scanning well spectrophotometer (Flow Laboratories) at a test wavelength of 570 nm and a reference wavelength of 630 nm.
The absorbances were stored on a floppy disk on a IBM-XT and uploaded on to a VAX computer. The ID50 values were determined by a computer program that fit all of the data (8 determinations per concentration and 12 concentrations per test analog) to the following equation:
Y=((Am-Ao)/(1+(X/ID50)n))+Ao
Am=absorbance of the control cells
Ao=absorbance of the cells in the presence of highest drug conc.
ID50 =dose of drug that inhibits the growth of cells to one half that of the control cells

Another assay deals with B16F10 melanoma. As to the kind of experiment: Tumor Cell Clearance Test B16F10 Melanoma. It counts as in vivo, mouse. The settings on record: for CPM/Lung (Mean + SEM): labelled B16F10 cells i.v. 24 h later, lungs counted 18 h later; for CPM/Lung (Mean + SEM) / Treated/Control: N=6; for Treated/Control: T/C <0.40 considered positive. From the text: One common route of cancer spread is through the blood. Very few cancer cells survive this hostile environment to go on and form metastases; NK cells and macrophages are believed to play an important role in controlling this hematogenous spread (Hanna, N. Cancer Research, 42:1337, 1982). Following the injection of various immunomodulators, macrophages and NK cells can be removed and shown to kill tumor cells in tissue culture. […] In the tumor cell clearance assay detailed below, radiolabelled tumor cells are injected intravenously (i.v.) into mice injected with an immunomodulator one day earlier. A decreased number of tumor cells, as reflected by a decreased amount of radioactivity remaining in the lungs, is used as an endpoint.
The B16 tumor line established from melanoma tumor which arose spontaneously on the skin at the base of the ear in a C57BL mouse. The B16F10 tumor subline was derived from the parent B16 line by selection for its ability to form lung tumors […] after i.v. injection and was subsequently established in vitro after 10 cycles of lung metastasis formation (Fidler, Eur. J. Cancer 9:223, 1973). The B16F10 tumor line is maintained by serial passage in vitro.
On day 0 female mice are injected intraperitoneally (i.p.) with test compound (6 mice/group) or vehicle alone (10 mice/group). Twenty-four hours later all mice are injected intravenously with 100,000 [^125 I] Iododeoxyuridine labelled B16F10 melanoma cells in 0.2 mL. Eighteen hours later mice are sacrificed and lungs removed and counted on a gamma counter.
Control and experimental group mean values are compared to the vehicle control using a Student's t-test. Poly I:C is an immunostimulant which activates macrophages and NK cells to kill and clear tumor cells faster and thus results in fewer cpm/lung. Statistical significance is set at p<0.05, and compounds with treated/control (T/C) values of <0.40 are considered positive.

Where a name gives a salt, the structure may show the parent alone. Read-outs that look alike come from different tables or passages of the source.

On to `O=C1c2ccc3c4c(ccc(c24)C(=O)N1CCCNCCCCNCCCN1C(=O)c2ccc4c5c(ccc(c25)C1=O)CC4)CC3` [Example 1, 1,4-Bis-[3-(1,3,6,7-tetrahydro-1,3-dioxo-2H-indeno[6,7,1-def]isoquinoline-2-yl)propyl)-amino]butane dihydromethanesulfonate], for which the IC50 in the assay with L1210 cells (Mus musculus, L1210, 72 h) amounted to 3010 nM.

With `O=C1c2ccc3c4c(ccc(c24)C(=O)N1CCCNCCCCNCCCN1C(=O)c2ccc4c5c(ccc(c25)C1=O)CC4)CC3` [Example 2, 1.4-Bis-[3 3.6 7-tetrahydro-1.3-dioxo-2H-indeno[6,7,1-def]isoquinoline-2-yl)propyl-amino]butane dihydrochloride], the IC50 with L1210 cells (dihydrochloride, 4320 min) amounted to 1720 nM.

Regarding `CCN(CCCCN(CC)CCCN1C(=O)c2ccc3c4c(ccc(c24)C1=O)CC3)CCCN1C(=O)c2ccc3c4c(ccc(c24)C1=O)CC3` [Example 3, 1,4-Bis-3-(1,3,6,7-tetrahydro-1,3-dioxo-2H-indeno6,7,1-def]isoquinoline-2-yl)-N-ethyl-propylamino]butane dihydrochloride], the “CPM/Lung (Mean + SEM)” value in the assay on B16F10 melanoma (6.25 mg/kg i.p. on day 0) is 27953 + 2567 CPM/Lung; with B16F10 melanoma (12.5 mg/kg i.p. on day 0) it was 24905 + 2497 CPM/Lung; in the assay on B16F10 melanoma (25 mg/kg i.p. on day 0), 6992 + 1417 CPM/Lung; with B16F10 melanoma (50 mg/kg i.p. on day 0), 3558 + 476 CPM/Lung. Besides, the Treated/Control with B16F10 melanoma (6.25 mg/kg i.p.) was determined as 0.90; in the assay on B16F10 melanoma (12.5 mg/kg i.p.), 0.80; in the assay on B16F10 melanoma (25 mg/kg i.p., *p < 0.001 compared to vehicle control), 0.23; in the assay with B16F10 melanoma (50 mg/kg i.p., *p < 0.001 compared to vehicle control), 0.11. Moreover, the “activating nonspecific immune cells against tumor cells” value with B16F10 melanoma (result in words, mice, B16F10 tumor cell clearance) was “effective in activating nonspecific immune cells against the B16F10 melanoma”. Moreover, the IC50 in the assay on L1210 cells (Mus musculus, L1210, 72 h) turned out to be 22 nM.

As for `O=C1c2ccc3c4c(ccc(c24)C(=O)N1CCCCNCCCN1C(=O)c2ccc4c5c(ccc(c25)C1=O)CC4)CC3` [Example 4, 4-3-(1,3,6,7-Tetrahydro-1,3-dioxo-2H-indeno6,7,1-def]isoquinoline-2-yl)propyl-amino1-1-(1,3,6,7-tetrahydro-1,3-dioxo-2H-indeno-6,7,1-def]isoquinoline-2-yl)butane methanesulfonate], in the assay on L1210 cells (Mus musculus, L1210, 72 h), the IC50 was found to be 290 nM.

In the case of Poly I:C [reference compound], the “CPM/Lung (Mean + SEM)” value in the assay with B16F10 melanoma (5 mg/kg i.p. on day 0) is 1044 + 87 CPM/Lung. The Treated/Control with B16F10 melanoma (5 mg/kg i.p., *p < 0.001 compared to vehicle control) was 0.03.

The record behind these values is patent US5086059A, “Bis-naphthalimides as anticancer agents” (Du Pont Merck Pharmaceutical Company, priority 1990, dated 1992).
